According to patent US20260167656A1, “PHOSPHORAMIDATE COMPOUNDS AND USES THEREOF” (ALLORION THERAPEUTICS INC, priority 2022, published 2026):

Assays:
[1] = test system: non-small cell lung cancer cell line H460; test: In vitro human cancer cell line cytotoxicity (proliferation) assay in H460, CellTiter-Glo, 72 hours; type: cell-based; settings: DMSO condition (no AKR1C3 inhibitor), read-out: CTG H460: Avg IC50 (nM) [Assay Condition: DMSO]
Method in brief: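 IC50s in nM come from CellTiter-Glo viability read after 72 h of compound exposure. Compounds went in from 10 mM DMSO stocks onto H460 cells, which had been plated at 3×10^3 per well and grown 24 h beforehand at 37 °C, 5% CO2.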

[2] = test system: non-small cell lung cancer cell line H460; test: H460 proliferation assay in the presence of 3 uM ASP9521 (AKR1C3 specific inhibitor); type: cell-based, human; settings: H460 cells, CellTiter-Glo, 72 hours, in the presence of 3 uM ASP9521 added 4 hours prior to compounds; read-out: CTG H460: Avg IC50 (nM) [Assay Condition: ASP9521]
Method in brief: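 AKR1C3 blocked with 3 uM ASP9521 given 4 h ahead of test compounds. H460 cells, plated 24 h earlier, were then treated for 72 h at 37 °C in 5% CO2. CellTiter-Glo luminescence gave viability.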

[3] = Homo sapiens, NCI-H460, 72 h, H460 cells

Structure (SMILES)	IC50 ([1]; H460 cells)	IC50 [2]	IC50 [1, 3]	IC50 ([1]; Homo sapiens, NCI-H460, H460 cells)
O=[N+]([O-])c1ccc2c(c1Oc1cccc(C3CC3)c1)CCC2OP(=O)(N1CC1)N1CC1 (stereo not drawn) [Example 316]	< 10 nM	781 nM	–	–
Cn1nnc(-c2cccc(Oc3c([N+](=O)[O-])ccc4c3CC[C@@H]4OP(=O)(N3CC3)N3CC3)c2)n1 [Example 354]	–	768 nM	< 10 nM	–
Cc1cc2cc(Oc3c([N+](=O)[O-])ccc4c3CCC4OP(=O)(N3CC3)N3CC3)ccc2n1C (stereo not drawn) [Example 387]	–	1860 nM	< 10 nM	–
O=[N+]([O-])c1ccc2c(c1Oc1cccc(OC3COC3)c1)CC[C@H]2OP(=O)(N1CC1)N1CC1 [Example 468]	< 10 nM	660 nM	–	–
O=[N+]([O-])c1cc2c(cc1Oc1ccc(-c3ccc(Cl)cc3)cc1)C(OP(=O)(N1CC1)N1CC1)CC2 (stereo not drawn) [Example 183]	10 to 50 nM	1840 nM	–	–
O=[N+]([O-])c1cc2c(cc1Oc1ccc(-c3ccccn3)cc1)C(OP(=O)(N1CC1)N1CC1)CC2 (stereo not drawn) [Example 523]	< 10 nM	2070 nM	–	–
COc1ccc(Oc2c([N+](=O)[O-])ccc3c2CC[C@@H]3OP(=O)(N2CC2)N2CC2)cc1C1CC1 [Example 348]	–	827 nM	< 10 nM	–
O=[N+]([O-])c1ccc2c(c1Oc1ccc(-c3ccc(F)cc3)c(F)c1)CCC2OP(=O)(N1CC1)N1CC1 (single isomer, unassigned) [Example 28]	< 10 nM	870 nM	–	–
CC1(C)CN(c2cccc(Oc3c([N+](=O)[O-])ccc4c3CCC4OP(=O)(N3CC3)N3CC3)c2)C(=O)O1 (racemic) [Example 416]	< 10 nM	275 nM	–	–
CN(C)C(=O)c1ccc(Oc2cc3c(cc2[N+](=O)[O-])CCC3OP(=O)(N2CC2)N2CC2)cc1 (single isomer, unassigned) [Example 140]	–	436 nM	< 10 nM	–
Cn1cc(-c2cccc(Oc3c([N+](=O)[O-])ccc4c3CCC4OP(=O)(N3CC3)N3CC3)c2)cn1 (stereo not drawn) [Example 300]	< 10 nM	1890 nM	–	–
O=[N+]([O-])c1ccc2c(c1Oc1ccc(-c3ccccn3)cc1)CC[C@H]2OP(=O)(N1CC1)N1CC1 (single isomer, unassigned) [Example 41]	–	1090 nM	< 10 nM	–
O=[N+]([O-])c1ccc2c(c1Oc1ccc(F)c(-c3ncns3)c1)CC[C@@H]2OP(=O)(N1CC1)N1CC1 [Example 347]	–	1300 nM	< 10 nM	–
O=[N+]([O-])c1ccc2c(c1Oc1cccc(OC(F)F)c1)CC[C@H]2OP(=O)(N1CC1)N1CC1 [Example 458]	< 10 nM	506 nM	–	–
O=[N+]([O-])c1ccc2c(c1Oc1cccc(-c3c(F)cnn3CCO)c1)CC[C@@H]2OP(=O)(N1CC1)N1CC1 [Example 371]	–	591 nM	< 10 nM	–
O=[N+]([O-])c1ccc2c(c1Oc1cccc(OC(F)(F)F)c1)CC[C@H]2OP(=O)(N1CC1)N1CC1 [Example 450]	< 10 nM	1060 nM	–	–
O=[N+]([O-])c1ccc2c(c1Oc1cccc(OC3CCCC3)c1)CCC2OP(=O)(N1CC1)N1CC1 (racemic) [Example 460]	< 10 nM	1230 nM	–	–
Cn1cc(-c2ccc(Oc3c([N+](=O)[O-])ccc4c3CCC4OP(=O)(N3CC3)N3CC3)cc2)cn1 (single isomer, unassigned) [Example 59]	< 10 nM	1360 nM	–	–
O=C(c1cccc(Oc2c([N+](=O)[O-])ccc3c2CCC3OP(=O)(N2CC2)N2CC2)c1)N1CCC1 (stereo not drawn) [Example 98]	< 10 nM	205 nM	–	–
CC(C)Oc1cccc(Oc2cc3cc(COP(=O)(N4CC4)N4CC4)oc3cc2[N+](=O)[O-])c1 [Example 547]	< 10 nM	1260 nM	–	–
O=C(NC1CC1)c1cc(Oc2c([N+](=O)[O-])ccc3c2CC[C@@H]3OP(=O)(N2CC2)N2CC2)ccc1F [Example 261]	10 to 50 nM	5690 nM	–	–
C[C@H](OP(=O)(N1CC1)N1CC1)c1cc2cc(Oc3cccc(C(=O)N4CC(F)(F)C4)c3)c([N+](=O)[O-])cc2o1 [Example 552]	10 to 50 nM	5870 nM	–	–
O=C1OCCN1c1cccc(Oc2c([N+](=O)[O-])ccc3c2CCC3OP(=O)(N2CC2)N2CC2)c1 (stereo not drawn) [Example 70]	–	380 nM	–	< 10 nM
CNC(=O)c1ccc(Oc2c([N+](=O)[O-])ccc3c2OCCC3OP(=O)(N2CC2)N2CC2)cc1 (stereo not drawn) [Example 137]	< 10 nM	538 nM	–	–
O=[N+]([O-])c1cc2c(cc1Oc1ccc(-c3ccc(F)cc3)cc1)C(OP(=O)(N1CC1)N1CC1)CC2 (stereo not drawn) [Example 145]	< 10 nM	1120 nM	–	–
Cn1ccc2ccc(Oc3cc4c(cc3[N+](=O)[O-])CCC4OP(=O)(N3CC3)N3CC3)cc2c1=O (stereo not drawn) [Example 156]	–	895 nM	10 to 50 nM	–

Structure (SMILES)	IC50 ([1]; H460 cells)	IC50 [2]	IC50 [1, 3]	IC50 ([1]; Homo sapiens, NCI-H460, H460 cells)
CN(C)C(=O)c1ccc(Oc2c([N+](=O)[O-])ccc3c2CCC3OP(=O)(N2CC2)N2CC2)cc1 (single isomer, unassigned) [Example 17]	–	758 nM	10 to 50 nM	–
COc1cc(Oc2c([N+](=O)[O-])ccc3c2CC[C@@H]3OP(=O)(N2CC2)N2CC2)cc(-c2ncc(F)cn2)c1 [Example 365]	–	1320 nM	< 10 nM	–
C[C@H]1CN1P(=O)(OC(c1ccc([N+](=O)[O-])c(Oc2cccc(C(=O)N(C)C)c2)c1)C(F)(F)F)N1C[C@@H]1C (stereo partly drawn) [Example 227]	–	9760 nM	10 to 50 nM	–
Cc1ccnn1-c1cc(Oc2c([N+](=O)[O-])ccc3c2CC[C@@H]3OP(=O)(N2CC2)N2CC2)ccc1F [Example 433]	–	2590 nM	< 10 nM	–
O=[N+]([O-])c1ccc2c(c1Oc1ccc(F)c(-n3cc(F)cn3)c1)CCC2OP(=O)(N1CC1)N1CC1 (racemic) [Example 418]	< 10 nM	1210 nM	–	–
CNC(=O)c1cc(Oc2c([N+](=O)[O-])ccc3c2CC[C@@H]3OP(=O)(N2CC2)N2CC2)ccc1F [Example 260]	< 10 nM	734 nM	–	–
O=[N+]([O-])c1ccc2c(c1Oc1ccc(-c3ccc(Cl)cc3)cc1)CCC2OP(=O)(N1CC1)N1CC1 (stereo not drawn) [Example 44]	≥ 100 nM	1940 nM	–	–
O=[N+]([O-])c1cc2c(cc1Oc1cccc(-c3ccccc3)c1)C(OP(=O)(N1CC1)N1CC1)CC2 (single isomer, unassigned) [Example 169]	< 10 nM	766 nM	–	–
CN(C(=O)c1cccc(Oc2c([N+](=O)[O-])ccc3c2CCC3OP(=O)(N2CC2)N2CC2)c1)c1ccccn1 (stereo not drawn) [Example 247]	< 10 nM	764 nM	–	–
COc1ccc(Oc2c([N+](=O)[O-])ccc3c2CCC3OP(=O)(N2CC2)N2CC2)cc1-c1ccc(F)cn1 (stereo not drawn) [Example 339]	< 10 nM	1360 nM	–	–
CN(C)C(=O)c1cccc(Oc2cc3c(cc2[N+](=O)[O-])CCC3OP(=O)(N2CC2)N2CC2)c1 (stereo not drawn) [Example 147]	< 10 nM	311 nM	–	–
CC(C)Oc1cc(Oc2c([N+](=O)[O-])ccc3c2CCC3OP(=O)(N2CC2)N2CC2)ccc1F (stereo not drawn) [Example 486]	< 10 nM	967 nM	–	–
C[C@@H]1CN1P(=O)(OC(c1ccc([N+](=O)[O-])c(Oc2cccc(C(=O)N(C)C)c2)c1)C(F)(F)F)N1C[C@H]1C (stereo partly drawn) [Example 226]	–	> 10000 nM	10 to 50 nM	–
CN(C(=O)c1cccc(Oc2c([N+](=O)[O-])ccc3c2CC[C@@H]3OP(=O)(N2CC2)N2CC2)c1)c1cnn(C)c1 [Example 254]	< 10 nM	786 nM	–	–
O=C(c1cccc(Oc2c([N+](=O)[O-])ccc3c2CCC3OP(=O)(N2CC2)N2CC2)c1)N1CC(F)(F)C1 (stereo not drawn) [Example 67]	< 10 nM	541 nM	–	–
O=[N+]([O-])c1ccc2c(c1Oc1ccc(-c3ccc(O)cn3)cc1)CC[C@@H]2OP(=O)(N1CC1)N1CC1 [Example 290]	–	274 nM	< 10 nM	–
CNC(=O)c1ccc(Oc2c([N+](=O)[O-])ccc3c2CCC3OP(=O)(N2CC2)N2CC2)cc1 (stereo not drawn) [Example 37]	< 10 nM	178 nM	–	–
Cc1nsc(-c2cccc(Oc3c([N+](=O)[O-])ccc4c3CC[C@@H]4OP(=O)(N3CC3)N3CC3)c2F)n1 [Example 360]	–	391 nM	< 10 nM	–
Cn1c(-c2cccc(Oc3c([N+](=O)[O-])ccc4c3CCC4OP(=O)(N3CC3)N3CC3)c2)cccc1=O (stereo not drawn) [Example 75]	10 to 50 nM	2720 nM	–	–
Cn1cc(-c2cccc(Oc3c([N+](=O)[O-])ccc4c3CCC4OP(=O)(N3CC3)N3CC3)c2)cn1 (racemic) [Example 299]	< 10 nM	744 nM	–	–
Cn1ccc2cc(Oc3c([N+](=O)[O-])ccc4c3CC[C@H]4OP(=O)(N3CC3)N3CC3)ccc21 [Example 386]	–	1410 nM	< 10 nM	–
Cc1noc(-c2cc(Oc3c([N+](=O)[O-])ccc4c3CC[C@@H]4OP(=O)(N3CC3)N3CC3)ccc2F)n1 [Example 326]	–	1270 nM	< 10 nM	–
COc1cc(OCC2CC2)cc(Oc2c([N+](=O)[O-])ccc3c2CC[C@@H]3OP(=O)(N2CC2)N2CC2)c1 [Example 501]	–	1080 nM	< 10 nM	–
O=[N+]([O-])c1ccc2c(c1Oc1cncc(C3CC3)c1)CCC2OP(=O)(N1CC1)N1CC1 (racemic) [Example 315]	< 10 nM	679 nM	–	–
Cc1csc(-c2cccc(Oc3c([N+](=O)[O-])ccc4c3CC[C@@H]4OP(=O)(N3CC3)N3CC3)c2)n1 [Example 343]	–	2300 nM	< 10 nM	–
